In one experiment the test system is lymphocytes. In words: mixed lymphocyte reaction (MLR), human lymphocytes (FIG. 12). Type of experiment: cell-based. As to the method: This example illustrates an inhibitive effect of compound no. 1206 in a mixed lymphocyte reaction (MLR). This MNR is used to screen potentially immunosuppressive drugs. Lymphocytes (2×10^5) from normal human donors are grown for 6 days in the presence and absence (control) of inventive compound no. 1206. Tritiated thymidine is added and the lymphocytes grown for a final 6 hours. Incorporation of the tritiated thymidine occurs when the cells are in cell cycle. […] An experimentally determined IC50 value for compound no. 1206 is 70 μM.

Experiment [1] concerns polymorphonuclear leukocytes. The note with it: cited from earlier work; for chemotaxis in polymorphonuclear leukocytes: in response to a stimulator of chemotaxis.
The test system of the next experiment is cerebral blood flow. Conditions: in vivo; cited from earlier work.
Experiment [2] concerns PAPH (phosphatidic acid phosphohydrolase). Nature of the experiment: blocking of PAPH in a specific activation pathway. Type of experiment: cell-based. The note with it: pathway not involving PI; human mesangial cells, TNF. The source says:
The compounds of the invention, include inhibitors of subspecies of LPAAT in PAPH enzymes with substrate specificity for intermediates with 1,2-diunsaturated and 1-alkyl, 2-unsaturated subspecies. One representative example of such an inhibitor (although not within the genus of inventive compounds) is PTX. […] It should be emphasized that the compounds of the invention affect that subset of PAPH and LPAAT that relates to substrates with unsaturated fatty acids other than arachidonate in the sn-2 position, not the housekeeping forms of these enzymes that serve the PI pathway.

The test system of experiment [3] is tumor necrosis factor (TNF) levels. Conditions: cited from earlier work.

Structures are written as SMILES. Where two headings read alike, the source gives them in different places.

The term IC50 denotes the concentration that inhibits the measured activity by half. A lower IC50 goes with greater potency in that assay.

`Cn1c(=O)c2ccccc2n(CCCCC2CO2)c1=O` (centres unmarked) [Compound 1206, 1-(5,6-Oxidohexyl)-3-methylbenzoyleneurea] showed an IC50 in the experiment with lymphocytes of 70 µM. In other words, the double-digit micromolar range.

Turning to `CC(O)CCCCn1c(=O)c2c(ncn2C)n(C)c1=O` (centres unmarked) [Compound M1, 1-(5-hydroxyhexyl)-3,7-dimethylxanthine], the “chemotaxis in polymorphonuclear leukocytes” value in experiment [1] is “stimulate chemotaxis in polymorphonuclear leukocytes”. The cerebral blood flow entry in the experiment on cerebral blood flow was “increasing cerebral blood flow”.

On to `CC(=O)CCCCn1c(=O)c2c(ncn2C)n(C)c1=O` [PTX, 1-(5-oxohexyl)-3,7-dimethylxanthine], for which the “blocking of PAPH” value in experiment [2] is recorded as “blocks PAPH in a specific activation pathway”. The TNF levels entry is on record as “TNF levels were higher among PTX recipients” in experiment [3] (normal volunteers) and “decrease tumor necrosis factor (TNF) levels” in experiment [3] (with GM-CSF, patients undergoing allogeneic bone marrow transplant). Also, the “activity of certain cytokines to affect chemotaxis” value in experiment [1] is recorded as “inhibit activity of certain cytokines to affect chemotaxis”. For the same molecule, the “chemotaxis in polymorphonuclear leukocytes” value in experiment [1] was “stimulate chemotaxis in polymorphonuclear leukocytes”.

Values taken from US5866576A, “Epoxide-containing compounds” (Cell Therapeutics, Inc., priority 1997, dated 1999).
